Assay results taken from US9212182B2, “Bicyclic sulfonamide compounds as sodium channel inhibitors” (AMGEN INC., priority 2013, dated 2015).

What follows are compounds tested against Nav 1.7 (Homo sapiens (Human), UniProt Q15858) (assay: in-vitro Nav 1.7 PX (IC50)). Details: not given.
Format: cell-based

Chain of Nav 1.7 (Q15858 whole entry): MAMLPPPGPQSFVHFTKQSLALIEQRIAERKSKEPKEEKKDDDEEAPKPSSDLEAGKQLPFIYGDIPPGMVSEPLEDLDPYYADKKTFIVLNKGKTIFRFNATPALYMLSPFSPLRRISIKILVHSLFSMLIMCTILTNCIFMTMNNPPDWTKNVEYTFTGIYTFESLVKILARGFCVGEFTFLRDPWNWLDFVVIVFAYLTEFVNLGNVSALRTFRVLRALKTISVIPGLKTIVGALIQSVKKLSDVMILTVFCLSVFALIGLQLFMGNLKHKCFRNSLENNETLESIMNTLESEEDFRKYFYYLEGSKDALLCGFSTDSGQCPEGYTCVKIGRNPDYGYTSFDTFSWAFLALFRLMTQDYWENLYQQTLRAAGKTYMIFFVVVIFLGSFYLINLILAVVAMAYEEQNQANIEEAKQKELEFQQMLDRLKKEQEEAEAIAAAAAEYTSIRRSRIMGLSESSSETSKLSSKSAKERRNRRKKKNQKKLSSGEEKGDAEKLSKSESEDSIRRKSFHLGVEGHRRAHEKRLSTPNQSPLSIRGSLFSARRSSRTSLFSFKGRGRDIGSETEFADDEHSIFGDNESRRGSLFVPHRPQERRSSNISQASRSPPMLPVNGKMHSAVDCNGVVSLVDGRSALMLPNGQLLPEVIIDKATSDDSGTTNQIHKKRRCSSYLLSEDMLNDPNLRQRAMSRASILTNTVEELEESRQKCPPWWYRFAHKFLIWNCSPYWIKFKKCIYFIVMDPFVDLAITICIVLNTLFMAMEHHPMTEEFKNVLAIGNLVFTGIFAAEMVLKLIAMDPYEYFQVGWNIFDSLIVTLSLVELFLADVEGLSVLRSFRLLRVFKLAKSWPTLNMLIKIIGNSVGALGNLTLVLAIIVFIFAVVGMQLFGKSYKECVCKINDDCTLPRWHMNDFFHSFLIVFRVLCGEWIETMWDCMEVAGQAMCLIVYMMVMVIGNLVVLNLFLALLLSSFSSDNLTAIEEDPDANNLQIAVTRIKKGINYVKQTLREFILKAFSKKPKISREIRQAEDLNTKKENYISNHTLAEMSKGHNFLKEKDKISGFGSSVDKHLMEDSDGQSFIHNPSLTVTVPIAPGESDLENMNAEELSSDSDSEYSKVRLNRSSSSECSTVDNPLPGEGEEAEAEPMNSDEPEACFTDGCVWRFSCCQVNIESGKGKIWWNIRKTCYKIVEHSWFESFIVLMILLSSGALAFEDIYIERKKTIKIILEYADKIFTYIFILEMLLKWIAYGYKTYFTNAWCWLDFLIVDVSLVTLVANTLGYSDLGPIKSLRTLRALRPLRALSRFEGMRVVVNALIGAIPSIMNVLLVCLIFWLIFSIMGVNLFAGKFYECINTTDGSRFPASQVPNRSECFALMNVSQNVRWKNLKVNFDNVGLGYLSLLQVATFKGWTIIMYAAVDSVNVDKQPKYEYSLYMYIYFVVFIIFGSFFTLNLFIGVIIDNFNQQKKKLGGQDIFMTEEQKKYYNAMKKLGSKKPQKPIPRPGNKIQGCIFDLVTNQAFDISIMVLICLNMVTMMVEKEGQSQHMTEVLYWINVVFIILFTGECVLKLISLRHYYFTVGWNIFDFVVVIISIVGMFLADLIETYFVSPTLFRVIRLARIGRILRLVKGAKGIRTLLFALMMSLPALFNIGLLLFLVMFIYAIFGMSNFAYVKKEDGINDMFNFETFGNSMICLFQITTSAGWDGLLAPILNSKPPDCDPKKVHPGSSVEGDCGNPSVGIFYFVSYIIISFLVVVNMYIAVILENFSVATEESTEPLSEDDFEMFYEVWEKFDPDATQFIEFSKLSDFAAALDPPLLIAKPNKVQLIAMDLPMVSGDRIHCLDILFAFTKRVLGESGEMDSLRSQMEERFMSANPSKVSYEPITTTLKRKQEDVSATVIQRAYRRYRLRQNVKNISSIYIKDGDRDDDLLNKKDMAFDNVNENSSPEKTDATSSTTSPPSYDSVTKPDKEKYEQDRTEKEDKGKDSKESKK

| Structure (SMILES) | IC50 [nM] |
| --- | --- |
| COc1cc(-c2ccc(Cl)c(C)c2)c(Cl)cc1-n1c(=O)ccc2cc(S(=O)(=O)Nc3ccon3)ccc21 (atropisomer, axis not shown; (M)) [Example 472, (M)-1-(2,4′-dichloro-5-methoxy-3′-methyl-[1,1′-biphenyl]-4-yl)-N-(isoxazol-3-yl)-2-oxo-1,2-dihydroquinoline-6-sulfonamide] | 786 |
| COc1ccc(-c2cncc(C(F)(F)F)c2)cc1-n1c(=O)ccc2cc(S(=O)(=O)Nc3ccon3)ccc21 [Example 492, N-3-isoxazolyl-1-(2-methoxy-5-(5-(trifluoromethyl)-3-pyridinyl)phenyl)-2-oxo-1,2-dihydro-6-quinolinesulfonamide] | 298 |
| COc1cc(-c2cccc(C(F)(F)F)c2)c(Cl)cc1-n1c(=O)ccc2cc(S(=O)(=O)Nc3ccon3)ccc21 (atropisomer, axis not shown; (M)) [Example 534, (M)-1-(2-chloro-5-methoxy-3′-(trifluoromethyl)-[1,1′-biphenyl]-4-yl)-N-(isoxazol-3-yl)-2-oxo-1,2-dihydroquinoline-6-sulfonamide] | 1350 |

Same assay, conditions: in-vitro Nav 1.7 PX data

| IC50 [nM] | Structure (SMILES) |
| --- | --- |
| 30 | COc1ccc(-c2cccc(Cl)c2F)cc1-n1c(=O)ccc2cc(S(=O)(=O)Nc3ccon3)ccc21 [Example 887, 1-(3′-chloro-2′-fluoro-4-methoxy-3-biphenylyl)-N-3-isoxazolyl-2-oxo-1,2-dihydro-6-quinolinesulfonamide] |
| 25 | CCOc1cccc(-c2cc(OC)c(-n3c(=O)ccc4cc(S(=O)(=O)Nc5ccon5)ccc43)cc2F)c1 [Example 727, 1-(3′-ethoxy-2-fluoro-5-methoxy-4-biphenylyl)-N-3-isoxazolyl-2-oxo-1,2-dihydro-6-quinolinesulfonamide] |
| 9 | COc1cc(-c2cc(Cl)cc(Cl)c2)ccc1-n1c(=O)ccc2cc(S(=O)(=O)Nc3ccon3)ccc21 [Example 1023, 1-(3′,5′-dichloro-3-methoxy-4-biphenylyl)-N-3-isoxazolyl-2-oxo-1,2-dihydro-6-quinolinesulfonamide] |
| 25 | COc1cc(-c2cccc(OC(C)C)c2)c(F)cc1-n1c(=O)ccc2cc(S(=O)(=O)Nc3ccon3)ccc21 [Example 823, 1-(2-fluoro-5-methoxy-3′-(1-methylethoxy)-4-biphenylyl)-N-3-isoxazolyl-2-oxo-1,2-dihydro-6-quinolinesulfonamide] |
| 1240 | COc1cc(-c2cccc(C(F)(F)F)c2)ccc1-n1c(=O)ccc2cc(S(=O)(=O)Nc3cnc(C)cn3)ccc21 [Example 949, 1-(3-methoxy-3′-(trifluoromethyl)-4-biphenylyl)-N-(5-methyl-2-pyrazinyl)-2-oxo-1,2-dihydro-6-quinolinesulfonamide] |
| 41 | COc1ccc(-c2cc(OC)c(-n3c(=O)ccc4cc(S(=O)(=O)Nc5ccon5)ccc43)cc2F)cc1F [Example 705, 1-(2,3′-difluoro-4′,5-dimethoxy-4-biphenylyl)-N-3-isoxazolyl-2-oxo-1,2-dihydro-6-quinolinesulfonamide] |
| 12 | COc1cc(Cl)c(-c2cccc(F)c2)cc1-n1c(=O)ccc2cc(S(=O)(=O)Nc3ccon3)ccc21 (atropisomer, axis not shown; (P)) [Example 608, (P)-1-(6-chloro-3′-fluoro-4-methoxy-3-biphenylyl)-N-3-isoxazolyl-2-oxo-1,2-dihydro-6-quinolinesulfonamide] |
| 100 | COc1cc(-c2ccc(F)c(F)c2)ccc1-n1c(=O)ccc2cc(S(=O)(=O)Nc3ncccn3)ccc21 [Example 897, 1-(3′,4′-difluoro-3-methoxy-4-biphenylyl)-2-oxo-N-2-pyrimidinyl-1,2-dihydro-6-quinolinesulfonamide] |
| 57 | COc1ccc(-c2ccc(Cl)cc2)cc1-n1c(=O)ccc2cc(S(=O)(=O)Nc3ccon3)ccc21 [Example 845, 1-(4′-chloro-4-methoxy-3-biphenylyl)-N-3-isoxazolyl-2-oxo-1,2-dihydro-6-quinolinesulfonamide] |
| 31 | COc1cc(-c2ccc(C(F)(F)F)cc2)c(F)cc1-n1c(=O)ccc2cc(S(=O)(=O)Nc3cccnn3)ccc21 [Example 795, 1-(2-fluoro-5-methoxy-4′-(trifluoromethyl)-4-biphenylyl)-2-oxo-N-3-pyridazinyl-1,2-dihydro-6-quinolinesulfonamide] |
| 9 | COc1cc(-c2cnc(OC)c(Cl)c2)c(F)cc1-n1c(=O)ccc2cc(S(=O)(=O)Nc3ccon3)ccc21 [Example 740, 1-(4-(5-chloro-6-methoxy-3-pyridinyl)-5-fluoro-2-methoxyphenyl)-N-3-isoxazolyl-2-oxo-1,2-dihydro-6-quinolinesulfonamide] |

Further lines, the compound ahead of its results:

| Structure (SMILES) | IC50 [nM] |
| --- | --- |
| COc1cc(-c2ccc(Cl)cc2)c(F)cc1-n1c(=O)ccc2cc(S(=O)(=O)Nc3cc(C)ncn3)ccc21 [Example 752, 1-(4′-chloro-2-fluoro-5-methoxy-4-biphenylyl)-N-(6-methyl-4-pyrimidinyl)-2-oxo-1,2-dihydro-6-quinolinesulfonamide] | 20 |
| COc1cc(OC)cc(-c2ccc(-n3c(=O)ccc4cc(S(=O)(=O)Nc5ccon5)ccc43)c(OC)c2)c1 [Example 811, N-3-isoxazolyl-2-oxo-1-(3,3′,5′-trimethoxy-4-biphenylyl)-1,2-dihydro-6-quinolinesulfonamide] | 66 |
| COc1cc(C)cc(-c2cc(OC)c(-n3c(=O)ccc4cc(S(=O)(=O)Nc5ncccn5)ccc43)cc2C)c1 [Example 967, 1-(3′,5-dimethoxy-2,5′-dimethyl-4-biphenylyl)-2-oxo-N-2-pyrimidinyl-1,2-dihydro-6-quinolinesulfonamide] | 14 |
| COc1cc(-c2cccc(C)c2)c(F)cc1-n1c(=O)ccc2cc(S(=O)(=O)Nc3ncccn3)ccc21 [Example 1107, 1-(2-fluoro-5-methoxy-3′-methyl-4-biphenylyl)-2-oxo-N-2-pyrimidinyl-1,2-dihydro-6-quinolinesulfonamide] | 32 |

Same assay, conditions: in-vitro PatchXpress (PX)

| Structure (SMILES) | IC50 [nM] |
| --- | --- |
| COc1cc(-c2cc(C)cc(Cl)c2)c(F)cc1-n1c(=O)ccc2cc(S(=O)(=O)Nc3ccon3)ccc21 (atropisomer, axis not shown; (P)) [Example 506, (P)-1-(3′-chloro-2-fluoro-5-methoxy-5′-methyl-4-biphenylyl)-N-3-isoxazolyl-2-oxo-1,2-dihydro-6-quinolinesulfonamide] | 8 |
| COc1cc(-c2ccc(F)c(Cl)c2)c(F)cc1-n1c(=O)ccc2cc(S(=O)(=O)Nc3ccon3)ccc21 (atropisomer, axis not shown; (P)) [Example 365, (P)-1-(3′-chloro-2,4′-difluoro-5-methoxy-4-biphenylyl)-N-3-isoxazolyl-2-oxo-1,2-dihydro-6-quinolinesulfonamide] | 9 |
| COc1cc(-c2cnc(C)c(Cl)c2)c(F)cc1-n1c(=O)ccc2cc(S(=O)(=O)Nc3ccon3)ccc21 [Example 532, 1-(4-(5-chloro-6-methyl-3-pyridinyl)-5-fluoro-2-methoxyphenyl)-N-3-isoxazolyl-2-oxo-1,2-dihydro-6-quinolinesulfonamide] | 282 |
| COc1nc(-c2cc(F)cc(F)c2)c(Cl)cc1-n1c(=O)ccc2cc(S(=O)(=O)Nc3ccon3)ccc21 [Example 447, 1-(5-chloro-6-(3,5-difluorophenyl)-2-methoxypyridin-3-yl)-N-(isoxazol-3-yl)-2-oxo-1,2-dihydroquinoline-6-sulfonamide] | 59 |
